Results: patent US9062078B2, “Substituted 7-azabicyles and their use as orexin receptor modulators” (priority 2013, dated 2015)
Like-named read-outs stand apart in the source and are kept apart here.

Assays:
human orexin 1 receptor = human orexin 1 receptor (Homo sapiens (Human), UniProt O43613); experiment: Human orexin 1 receptor radioligand binding (competitive, [3H]-SB674042, CHO cell preparations)
human orexin 2 receptor = human orexin 2 receptor (Homo sapiens (Human), UniProt O43614); experiment: Human orexin 2 receptor radioligand binding (competitive, [3H]-EMPA, HEK293 cell preparations)
rat orexin 1 receptor = rat orexin 1 receptor (Rattus norvegicus, UniProt P56718); experiment: Rat orexin 1 receptor radioligand binding (competitive, [3H]-SB674042, HEK293 cell preparations); conditions: rat orexin 1 receptor, [3H]-SB674042 competition binding; read-out: rOX1 Ki (nm)
[1] = human orexin 2 receptor, [3H]-EMPA competition binding, read-out: hOX2 Ki (nm)
[2] = human orexin 1 receptor, [3H]-SB674042 competition binding, read-out: hOX1 Ki (nm)

Chain of human orexin 2 receptor (O43614 whole entry): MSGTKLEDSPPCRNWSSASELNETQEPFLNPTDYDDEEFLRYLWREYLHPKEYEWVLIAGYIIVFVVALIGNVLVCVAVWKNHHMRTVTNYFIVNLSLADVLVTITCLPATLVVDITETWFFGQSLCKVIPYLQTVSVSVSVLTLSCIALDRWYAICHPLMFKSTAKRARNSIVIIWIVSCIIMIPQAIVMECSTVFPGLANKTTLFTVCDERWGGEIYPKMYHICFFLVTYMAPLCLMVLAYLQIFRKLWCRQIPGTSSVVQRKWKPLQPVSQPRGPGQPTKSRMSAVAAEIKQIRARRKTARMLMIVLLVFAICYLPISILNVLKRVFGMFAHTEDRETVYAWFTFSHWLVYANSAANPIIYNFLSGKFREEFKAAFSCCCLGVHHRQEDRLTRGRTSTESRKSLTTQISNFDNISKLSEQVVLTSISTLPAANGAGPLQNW
Chain of human orexin 1 receptor (O43613 whole entry): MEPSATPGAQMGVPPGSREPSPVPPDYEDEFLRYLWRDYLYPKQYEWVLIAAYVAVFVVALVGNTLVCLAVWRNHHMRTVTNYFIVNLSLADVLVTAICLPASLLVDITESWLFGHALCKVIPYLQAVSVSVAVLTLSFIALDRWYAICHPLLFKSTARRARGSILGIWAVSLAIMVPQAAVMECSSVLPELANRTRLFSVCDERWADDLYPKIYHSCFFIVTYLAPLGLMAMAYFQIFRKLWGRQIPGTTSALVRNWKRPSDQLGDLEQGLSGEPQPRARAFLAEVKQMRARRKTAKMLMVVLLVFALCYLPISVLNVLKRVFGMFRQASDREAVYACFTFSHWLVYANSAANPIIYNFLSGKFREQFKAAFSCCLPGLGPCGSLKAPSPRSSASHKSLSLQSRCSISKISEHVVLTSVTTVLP

Structure (SMILES)	Ki (human orexin 1 receptor; hOX1 Ki (nm)) [µM]	Ki (human orexin 2 receptor; hOX2 Ki (nm)) [µM]	Ki (human orexin 2 receptor; [1]) [µM]	Ki (human orexin 1 receptor; [2]) [µM]	Ki (rat orexin 1 receptor) [µM]
O=C(c1ccccc1-c1cccs1)N1C2CCC1C(COc1ccc(F)cn1)C2 (racemic) [Example 11, (±)-(2-(((5-fluoropyridin-2-yl)oxy)methyl)-7-azabicyclo[2.2.1]heptan-7-yl)(2-(thiophen-2-yl)phenyl)methanone]	0.01	0.012	–	–	–
Cc1ccc(-n2nccn2)c(C(=O)N2C3CCC2C(COc2nccc(C(F)(F)F)n2)C3)c1 (racemic) [Example 13, (±)-(5-methyl-2-(2H-1,2,3-triazol-2-yl)phenyl)(2-(((4-(trifluoromethyl)pyrimidin-2-yl)oxy)methyl)-7-azabicyclo[2.2.1]heptan-7-yl)methanone]	0.118	–	0.109	–	–
Cc1ccc(-n2nccn2)c(C(=O)N2C3CCC2C(COc2ccc(C(F)(F)F)cn2)C3)c1 (racemic) [Example 14, (±)-(5-methyl-2-(2H-1,2,3-triazol-2-yl)phenyl)(2-(((5-(trifluoromethyl)pyridin-2-yl)oxy)methyl)-7-azabicyclo[2.2.1]heptan-7-yl)methanone]	0.05	–	0.071	–	–
Cc1ccc(-n2nccn2)c(C(=O)N2C3CCC2C(COc2ncccc2C(F)(F)F)C3)c1 (racemic) [Example 15, (±)-(5-methyl-2-(2H-1,2,3-triazol-2-yl)phenyl)(2-(((3-(trifluoromethyl)pyridin-2-yl)oxy)methyl)-7-azabicyclo[2.2.1]heptan-7-yl)methanone]	0.056	–	0.12	–	–
Cc1ccc(-n2nccn2)c(C(=O)N2C3CCC2C(COc2cccc(C(F)(F)F)n2)C3)c1 (racemic) [Example 16, (±)-(5-methyl-2-(2H-1,2,3-triazol-2-yl)phenyl)(2-(((6-(trifluoromethyl)pyridin-2-yl)oxy)methyl)-7-azabicyclo[2.2.1]heptan-7-yl)methanone]	–	–	0.042	0.02	–
Cc1ccnc(OCC2CC3CCC2N3C(=O)c2cc(C)ccc2-n2nccn2)c1 (racemic) [Example 17, (±)-(5-methyl-2-(2H-1,2,3-triazol-2-yl)phenyl)(2-(((4-methylpyridin-2-yl)oxy)methyl)-7-azabicyclo[2.2.1]heptan-7-yl)methanone]	–	–	0.069	0.041	–
Cc1ccc(-n2nccn2)c(C(=O)N2C3CCC2C(COc2cccc(C)n2)C3)c1 (racemic) [Example 18, (±)-(5-methyl-2-(2H-1,2,3-triazol-2-yl)phenyl)(2-(((6-methylpyridin-2-yl)oxy)methyl)-7-azabicyclo[2.2.1]heptan-7-yl)methanone]	–	–	0.044	0.012	–
Cc1ccc(OCC2CC3CCC2N3C(=O)c2cc(C)ccc2-n2nccn2)nc1 (racemic) [Example 19, (±)-(5-methyl-2-(2H-1,2,3-triazol-2-yl)phenyl)(2-(((5-methylpyridin-2-yl)oxy)methyl)-7-azabicyclo[2.2.1]heptan-7-yl)methanone]	–	–	0.044	0.012	–
Cc1ccc(-n2nccn2)c(C(=O)N2C3CCC2C(COc2nc(C)cnc2C)C3)c1 (racemic) [Example 20, (±)-(2-(((3,6-dimethylpyrazin-2-yl)oxy)methyl)-7-azabicyclo[2.2.1]heptan-7-yl)(5-methyl-2-(2H-1,2,3-triazol-2-yl)phenyl)methanone]	–	–	0.364	0.27	–
Cc1ccc(-n2nccn2)c(C(=O)N2C3CCC2C(COc2nc4ccccc4nc2C(F)(F)F)C3)c1 (racemic) [Example 21, (±)-(5-methyl-2-(2H-1,2,3-triazol-2-yl)phenyl)(2-(((3-(trifluoromethyl)quinoxalin-2-yl)oxy)methyl)-7-azabicyclo[2.2.1]heptan-7-yl)methanone]	0.3	–	0.487	–	–
O=C(c1ccccc1-n1nccn1)N1C2CCC1C(COc1ccc(F)cn1)C2 (racemic) [Example 22, (±)-(2-(2H-1,2,3-triazol-2-yl)phenyl)(2-(((5-fluoropyridin-2-yl)oxy)methyl)-7-azabicyclo[2.2.1]heptan-7-yl)methanone]	–	–	0.05	0.047	–
O=C(c1cccc2cccnc12)N1C2CCC1C(COc1ccc(F)cn1)C2 (racemic) [Example 23, (±)-2-(((5-fluoropyridin-2-yl)oxy)methyl)-7-azabicyclo[2.2.1]heptan-7-yl)(quinolin-8-yl)methanone]	–	–	1.5	0.322	–
O=C(c1cccc2ccccc12)N1C2CCC1C(COc1ccc(F)cn1)C2 (racemic) [Example 24, (±)-2-(((5-fluoropyridin-2-yl)oxy)methyl)-7-azabicyclo[2.2.1]heptan-7-yl)(naphthalen-1-yl)methanone]	–	–	0.164	0.122	–
Cc1ccc2ccccc2c1C(=O)N1C2CCC1C(COc1ccc(F)cn1)C2 (racemic) [Example 25, (±)-2-(((5-fluoropyridin-2-yl)oxy)methyl)-7-azabicyclo[2.2.1]heptan-7-yl)(2-methylnaphthalen-1-yl)methanone]	0.074	0.16	–	–	–
O=C(c1ccccc1-n1cccn1)N1C2CCC1C(COc1ccc(F)cn1)C2 (racemic) [Example 26, (±)-2-(1H-pyrazol-1-yl)phenyl)(2-(((5-fluoropyridin-2-yl)oxy)methyl)-7-azabicyclo[2.2.1]heptan-7-yl)methanone]	–	–	0.394	0.117	–
O=C(c1occc1-c1ccccc1)N1C2CCC1C(COc1ccc(F)cn1)C2 (racemic) [Example 27, (±)-2-(((5-fluoropyridin-2-yl)oxy)methyl)-7-azabicyclo[2.2.1]heptan-7-yl)(3-phenylfuran-2-yl)methanone]	–	0.38	–	0.677	–
CCOc1ccc2ccccc2c1C(=O)N1C2CCC1C(COc1ccc(F)cn1)C2 (racemic) [Example 28, (±)-(2-ethoxynaphthalen-1-yl)(2-(((5-fluoropyridin-2-yl)oxy)methyl)-7-azabicyclo[2.2.1]heptan-7-yl)methanone]	–	–	0.011	0.014	–
Cc1nc(C(=O)N2C3CCC2C(COc2ccc(F)cn2)C3)c(-c2ccccc2F)s1 (racemic) [Example 29, (±)-(5-(2-fluorophenyl)-2-methylthiazol-4-yl)(2-(((5-fluoropyridin-2-yl)oxy)methyl)-7-azabicyclo[2.2.1]heptan-7-yl)methanone]	–	–	0.06	0.011	–
O=C(c1cc(F)ccc1-n1nccn1)N1C2CCC1C(COc1ccc(F)cn1)C2 (racemic) [Example 30, (±)-(5-fluoro-2-(2H-1,2,3-triazol-2-yl)phenyl)(2-(((5-fluoropyridin-2-yl)oxy)methyl)-7-azabicyclo[2.2.1]heptan-7-yl)methanone]	–	–	0.149	0.047	–
O=C(c1cc(F)ccc1-n1nccn1)N1C2CCC1C(CNc1nccc(C(F)(F)F)n1)C2 (racemic) [Example 171, (±)-(5-fluoro-2-(2H-1,2,3-triazol-2-yl)phenyl)(2-(((4-(trifluoromethyl)pyrimidin-2-yl)amino)methyl)-7-azabicyclo[2.2.1]heptan-7-yl)methanone]	–	–	–	1.93	–
O=C(c1cc(F)ccc1-n1nccn1)N1C2CCC1C(CNc1cccc(C(F)(F)F)n1)C2 (racemic) [Example 172, (±)-(5-fluoro-2-(2H-1,2,3-triazol-2-yl)phenyl)(2-(((6-(trifluoromethyl)pyridin-2-yl)amino)methyl)-7-azabicyclo[2.2.1]heptan-7-yl)methanone]	–	–	–	0.686	–
O=C(c1ccccc1-n1nccn1)N1C2CCC1C(Nc1ncc(C(F)(F)F)cn1)C2 (racemic) [Example 221, (±)-(2-(2H-1,2,3-triazol-2-yl)phenyl)(2-(5-(trifluoromethyl)pyrimidin-2-yl)amino)-7-azabicyclo[2.2.1]heptan-7-yl)methanone]	–	–	–	0.2	–
COC(=O)c1cnc(N[C@@H]2C[C@H]3CC[C@@H]2N3C(=O)c2cccc(F)c2-c2ncccn2)cn1 [Example 275, methyl 5-(((1S,2R,4R)-7-(3-fluoro-2-(pyrimidin-2-yl)benzoyl)-7-azabicyclo[2.2.1]heptan-2-yl)amino)pyrazine-2-carboxylate]	–	–	> 10	–	> 10
O=C(c1cccc(F)c1I)N1[C@@H]2CC[C@H]1[C@H](Nc1ncc(C(F)(F)F)cn1)C2 [Example 277, (3-fluoro-2-iodophenyl)((1S,2R,4R)-2-((5-(trifluoromethyl)pyrimidin-2-yl)amino)-7-azabicyclo[2.2.1]heptan-7-yl)methanone]	–	–	7.4	–	0.457
CN(c1cnc(C(F)(F)F)cn1)[C@@H]1C[C@H]2CC[C@@H]1N2C(=O)c1cccc(F)c1-c1ncccn1 [Example 282, (3-fluoro-2-(pyrimidin-2-yl)phenyl)((1S,2R,4R)-2-(methyl(5-(trifluoromethyl)pyrazin-2-yl)amino)-7-azabicyclo[2.2.1]heptan-7-yl)methanone]	–	–	> 10	–	0.486
CCOc1ccc(C)nc1C(=O)N1[C@@H]2CC[C@H]1[C@H](Nc1cnc(C(F)(F)F)cn1)C2 [Example 287, (3-ethoxy-6-methylpyridin-2-yl)((1S,2R,4R)-2-((5-(trifluoromethyl)pyrazin-2-yl)amino)-7-azabicyclo[2.2.1]heptan-7-yl)methanone]	–	–	0.767	–	0.472
COc1cccc(-c2c(C)cnn2C)c1C(=O)N1[C@@H]2CC[C@H]1[C@H](Nc1cnc(C(F)(F)F)cn1)C2 [Example 292, (2-(1,4-dimethyl-1H-pyrazol-5-yl)-6-methoxyphenyl)((1S,2R,4R)-2-((5-(trifluoromethyl)pyrazin-2-yl)amino)-7-azabicyclo[2.2.1]heptan-7-yl)methanone]	–	–	> 10	–	> 10
O=C(c1cccc(F)c1-c1ncccn1)N1[C@H]2CC[C@@H]1[C@@H](Nc1cnc(C(F)(F)F)cn1)C2 [Example 297, (3-fluoro-2-(pyrimidin-2-yl)phenyl)((1R,2S,4S)-2-((5-(trifluoromethyl)pyrazin-2-yl)amino)-7-azabicyclo[2.2.1]heptan-7-yl)methanone]	–	–	> 10	–	> 10
